# Target: T1, recombinant full-length human GSK3β (Homo sapiens, UniProt P49841)
# T1 construct: recombinant full-length human GSK3β (Upstate); purchased Upstate
# Test: cell-free GSK3 kinase assay (KinaseGlo luciferase)
# Type: biochemical
# Conditions: Table 1; 5 μM ATP, 1 hour at 30 degrees Celsius
# Method: Proceed to KinaseGlo luciferase reaction.
# Following the completion of the kinase reaction an equal volume of KinaseGlo luciferase reagent (Promega) is added and the luminescence read using a luminescence plate reader within 5-10 minutes.
# T1 sequence (P49841 whole entry): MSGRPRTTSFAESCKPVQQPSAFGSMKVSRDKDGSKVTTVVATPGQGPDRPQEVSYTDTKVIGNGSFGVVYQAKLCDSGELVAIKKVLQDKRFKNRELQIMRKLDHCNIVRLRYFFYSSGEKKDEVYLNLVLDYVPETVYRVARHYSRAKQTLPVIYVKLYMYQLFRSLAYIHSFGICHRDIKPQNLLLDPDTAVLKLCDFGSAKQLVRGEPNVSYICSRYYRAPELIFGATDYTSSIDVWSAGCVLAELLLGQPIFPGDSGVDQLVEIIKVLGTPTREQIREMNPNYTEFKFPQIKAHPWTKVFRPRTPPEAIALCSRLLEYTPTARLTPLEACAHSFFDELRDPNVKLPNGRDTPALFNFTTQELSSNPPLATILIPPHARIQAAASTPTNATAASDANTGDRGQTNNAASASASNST
row,Compound,IC50
1,N=C(NO)c1cn2c3c(c(NCCCn4ccnc4)c(F)c(N)c3c1=O)OCC21CCCC1 [Compound 43],61 to 150 nM
2,Nc1c(F)c(N[C@@H]2CC[C@H](c3ccccn3)C2)c2c3c1c(=O)c(C(=O)O)cn3C1(CCCC1)CO2 [Compound 79],> 150 nM
3,Nc1c(F)c(NCCCc2ccccn2)c2c3c1c(=O)c(C(=O)O)cn3C1(CCCC1)CO2 [Compound 26],< 15 nM
4,Nc1c(F)c(NCCNc2ccccn2)c2c3c1c(=O)c(C(=O)O)cn3C1(CCC1)CCO2 [Compound 47],16 to 60 nM
5,Nc1c(F)c(NCCOc2ccc(Cl)cc2)c2c3c1c(=O)c(C(=O)O)cn3C1(CCCC1)CO2 [Compound 12],61 to 150 nM
6,Cc1cc(NCCNc2c(F)c(N)c3c(=O)c(C(=O)O)cn4c3c2OCC42CCCC2)c2ccccc2n1 [Compound 30],< 15 nM
7,COc1cccc(CCCNc2c(F)c(N)c3c(=O)c(C(=O)O)cn4c3c2OCC42CCCC2)c1 [Compound 69],< 15 nM
8,N#Cc1cn2c3c(c(NCCCn4ccnc4)c(F)c(N)c3c1=O)OCCC21CCC1 [Compound 93],16 to 60 nM
9,Nc1c(F)c(NCCOc2ccc(F)cc2)c2c3c1c(=O)c(C(=O)O)cn3C1(CCCC1)CO2 [Compound 9],16 to 60 nM
10,CCN(CCCNc1c(F)c(N)c2c(=O)c(C(=O)O)cn3c2c1OCCC31CCC1)c1ccccc1 [Compound 57],16 to 60 nM
11,Cc1cc(C)n(CCCNc2c(F)c(N)c3c(=O)c(C(=O)O)cn4c3c2OCC42CCCC2)n1 [Compound 41],16 to 60 nM
12,Nc1c(F)c(NCCCn2ccnc2)c2c3c1c(=O)c(C(=O)O)cn3C1(CCCC1)CO2 [Compound 96],< 15 nM
13,Nc1c(F)c(N[C@H]2CC[C@H](n3ccnc3)C2)c2c3c1c(=O)c(C(=O)O)cn3C1(CCCC1)CO2 [Compound 77],< 15 nM
14,Nc1c(F)c(NCCNc2ccccn2)c2c3c1c(=O)c(C(=O)NO)cn3C1(CCC1)CCO2 [Compound 89],< 15 nM
15,CC(CCc1ccc(Cl)cc1)Nc1c(F)c(N)c2c(=O)c(C(=O)O)cn3c2c1OCC31CCCC1 (centres unmarked) [Compound 6],16 to 60 nM
16,Nc1c(F)c(NCCCn2cnc3ccccc32)c2c3c1c(=O)c(C(=O)O)cn3C1(CCCC1)CO2 [Compound 70],< 15 nM
17,Nc1c(F)c(NCCN2CCC(c3ccccc3)C2)c2c3c1c(=O)c(C(=O)O)cn3C1(CCCC1)CO2 (centres unmarked) [Compound 71],> 150 nM
18,Nc1nc(NCCNc2c(F)c(N)c3c(=O)c(C(=O)O)cn4c3c2OCCC42CCC2)ccc1[N+](=O)[O-] [Compound 61],61 to 150 nM
19,Cc1cc(NCCNc2c(F)c(N)c3c(=O)c(C(=O)O)cn4c3c2OCC42CCCC2)nc2ccccc12 [Compound 2],61 to 150 nM
20,CC(C)c1ccc(OCCNc2c(F)c(N)c3c(=O)c(C(=O)O)cn4c3c2OCC42CCCC2)cc1 [Compound 67],> 150 nM

row,Compound,IC50
1,Nc1c(F)c(NCCNc2ccccn2)c2c3c1c(=O)c(C(=O)O)cn3C1(CCCC1)CCO2 [Compound 48],> 150 nM
2,Nc1c(F)c(NCCCc2ccccn2)c2c3c1c(=O)ccn3C1(CCCC1)CO2 [Compound 85],16 to 60 nM
3,Cc1cc(OCCNc2c(F)c(N)c3c(=O)c(C(=O)O)cn4c3c2OCC42CCCC2)ccc1Cl [Compound 10],16 to 60 nM
4,Nc1c(F)c(NCCCNC(=O)C23CC4CC(CC(C4)C2)C3)c2c3c1c(=O)c(C(=O)O)cn3C1(CCCC1)CO2 [Compound 8],16 to 60 nM
5,CC(COc1ccc(Cl)cc1)Nc1c(F)c(N)c2c(=O)c(C(=O)O)cn3c2c1OCC31CCCC1 (centres unmarked) [Compound 74],> 150 nM
6,Nc1c(F)c(NCCCn2ccnc2)c2c3c1c(=O)c(C(=O)O)cn3C1(CCC1)CCO2 [Compound 60],< 15 nM
7,Nc1c(F)c(NCCNC2=NS(=O)(=O)c3ccccc32)c2c3c1c(=O)c(C(=O)O)cn3C1(CCCC1)CO2 [Compound 20],< 15 nM
8,Nc1c(F)c(NCCCc2ccc(Cl)cc2)c2c3c1c(=O)c(C(=O)O)cn3C1(CCCC1)CO2 [Compound 40],> 150 nM
9,Nc1c(F)c(NCCCc2ccccn2)c2c3c1c(=O)ccn3C1(CCC1)CCO2 [Compound 83],61 to 150 nM
10,Cc1cc(=O)c2c(N)c(F)c(NCCNc3ccccn3)c3c2n1C1(CCC1)CCO3 [Compound 99],> 150 nM
11,Nc1c(F)c(NCCNc2ccccn2)c2c3c1c(=O)c(C(=O)O)cn3CC1(CCC1)CO2 [Compound 51],61 to 150 nM
12,Nc1c(F)c(NCCOc2ccc(Cl)cc2Cl)c2c3c1c(=O)c(C(=O)O)cn3C1(CCCC1)CO2 [Compound 13],61 to 150 nM
13,NC(=O)c1cn2c3c(c(NCCNc4ccccn4)c(F)c(N)c3c1=O)OCCC21CCC1 [Compound 86],< 15 nM
14,COc1ccc(CCCNc2c(F)c(N)c3c(=O)c(C(=O)O)cn4c3c2OCC42CCCC2)cc1 [Compound 28],< 15 nM
15,COc1ccc(OCCNc2c(F)c(N)c3c(=O)c(C(=O)O)cn4c3c2OCC42CCCC2)cc1OC [Compound 14],< 15 nM
16,COc1ccc(C(CCNc2c(F)c(N)c3c(=O)c(C(=O)O)cn4c3c2OCC42CCCC2)c2ccc(F)cc2)cc1 (centres unmarked) [Compound 39],< 15 nM
17,Nc1c(F)c(NCCNc2ccccn2)c2c3c1c(=O)c(C(=O)O)cn3C1(CCO2)CC1 [Compound 46],16 to 60 nM
18,Nc1c(F)c(NCCCNC(=O)c2ccco2)c2c3c1c(=O)c(C(=O)O)cn3C1(CCCC1)CO2 [Compound 7],16 to 60 nM
19,Nc1c(F)c(NCCNc2ccccn2)c2c3c1c(=O)c(C(=O)O)cn3CC1(CC1)CO2 [Compound 52],> 150 nM

# Continued, values first:
row,IC50,Compound
1,< 15 nM,Nc1c(F)c(NCCNc2ccccn2)c2c3c1c(=O)c(C(=O)O)cn3C1(CCCC1)CO2 [Compound 1]
2,16 to 60 nM,N#Cc1cn2c3c(c(NCCNc4ccccn4)c(F)c(N)c3c1=O)OCCC21CCC1 [Compound 91]
3,< 15 nM,Nc1c(F)c(NCCCc2ccccc2)c2c3c1c(=O)c(C(=O)O)cn3C1(CCCC1)CO2 [Compound 65]
4,> 150 nM,Nc1c(F)c(NCCSc2nc3ccccc3[nH]2)c2c3c1c(=O)c(C(=O)O)cn3C1(CCCC1)CO2 [Compound 76]
5,< 15 nM,N#Cc1ccc(CCCNc2c(F)c(N)c3c(=O)c(C(=O)O)cn4c3c2OCC42CCCC2)nc1 [Compound 81]
6,16 to 60 nM,Nc1c(F)c(NCCNc2ccccn2)c2c3c1c(=O)c(C(=O)O)cn3C1(CCC1)CO2 [Compound 44]
7,< 15 nM,CC1COc2c(NCCNc3ccccn3)c(F)c(N)c3c(=O)c(C(=O)O)cn(c23)C12CCC2 (centres unmarked) [Compound 49]
8,< 15 nM,Cc1nn(C)c(C)c1CCCNc1c(F)c(N)c2c(=O)c(C#N)cn3c2c1OCC31CCCC1 [Compound 38]
9,< 15 nM,Nc1c(F)c(NCCCn2ccnc2)c2c3c1c(=O)ccn3C1(CCC1)CCO2 [Compound 84]
10,< 15 nM,Cc1nnc(SCCNc2c(F)c(N)c3c(=O)c(C(=O)O)cn4c3c2OCC42CCCC2)[nH]1 [Compound 16]
11,16 to 60 nM,CC(CCc1ccccc1Cl)Nc1c(F)c(N)c2c(=O)c(C(=O)O)cn3c2c1OCC31CCCC1 (centres unmarked) [Compound 31]
12,< 15 nM,Cc1ccc2nc(C)cc(NCCNc3c(F)c(N)c4c(=O)c(C(=O)O)cn5c4c3OCC53CCCC3)c2c1 [Compound 15]
13,> 150 nM,Nc1c(F)c(NC2CCN(c3ccccn3)C2)c2c3c1c(=O)c(C(=O)O)cn3C1(CCC1)CCO2 (centres unmarked) [Compound 62]
14,16 to 60 nM,Cc1c(C(=O)O)c(=O)c2c(N)c(F)c(NCCNc3ccccn3)c3c2n1C1(CCC1)CCO3 [Compound 94]
15,< 15 nM,Nc1c(F)c(NCCSc2c[nH]c3ccccc23)c2c3c1c(=O)c(C(=O)O)cn3C1(CCCC1)CO2 [Compound 11]
16,< 15 nM,Nc1c(F)c(NCCCc2ccncc2)c2c3c1c(=O)c(C(=O)O)cn3C1(CCCC1)CO2 [Compound 80]

row,IC50,Compound
1,< 15 nM,N#Cc1cn2c3c(c(NCCCn4ccnc4)c(F)c(N)c3c1=O)OCC21CCCC1 [Compound 37]
2,61 to 150 nM,COc1ccc(OCCNc2c(F)c(N)c3c(=O)c(C(=O)O)cn4c3c2OCC42CCCC2)cc1 [Compound 34]
3,> 150 nM,Nc1c(F)c(NCCOc2ccc(-c3ccccc3)cc2)c2c3c1c(=O)c(C(=O)O)cn3C1(CCCC1)CO2 [Compound 75]
4,< 15 nM,Nc1c(F)c(NCCCc2ccc(F)cc2)c2c3c1c(=O)c(C(=O)O)cn3C1(CCC1)CCO2 [Compound 59]
5,< 15 nM,N#Cc1cn2c3c(c(NCCCc4ccccn4)c(F)c(N)c3c1=O)OCC21CCCC1 [Compound 36]
6,< 15 nM,Cc1[nH]ncc1CCCNc1c(F)c(N)c2c(=O)c(C(=O)O)cn3c2c1OCC31CCCC1 [Compound 42]
7,< 15 nM,Cn1ccnc1SCCNc1c(F)c(N)c2c(=O)c(C(=O)O)cn3c2c1OCC31CCCC1 [Compound 18]
8,16 to 60 nM,Nc1c(F)c(NCCCN2CCCc3ccccc32)c2c3c1c(=O)c(C(=O)O)cn3C1(CCCC1)CO2 [Compound 5]
9,16 to 60 nM,Nc1c(F)c(NCCCc2ccccn2)c2c3c1c(=O)c(-c1nnn[nH]1)cn3C1(CCCC1)CO2 [Compound 35]
10,< 15 nM,Cc1nn(C)c(C)c1CCCNc1c(F)c(N)c2c(=O)c(C(=O)O)cn3c2c1OCC31CCCC1 [Compound 32]
11,16 to 60 nM,CCOc1ccc(CCCNc2c(F)c(N)c3c(=O)c(C(=O)O)cn4c3c2OCC42CCCC2)cc1OCC [Compound 29]
12,16 to 60 nM,Nc1c(F)c(N[C@@H]2C[C@H]2Cc2ccccn2)c2c3c1c(=O)c(C(=O)O)cn3C1(CCCC1)CO2 [Compound 64]
13,< 15 nM,NNC(=O)c1cn2c3c(c(NCCNc4ccccn4)c(F)c(N)c3c1=O)OCCC21CCC1 [Compound 88]
14,< 15 nM,Nc1c(F)c(N[C@H]2CC[C@H](c3ccccn3)C2)c2c3c1c(=O)c(C(=O)O)cn3C1(CCCC1)CO2 [Compound 78]
15,61 to 150 nM,Nc1c(F)c(NCCS(=O)(=O)N2CCCCC2)c2c3c1c(=O)c(C(=O)O)cn3C1(CCCC1)CO2 [Compound 19]

# Same assay, conditions: Table 2; 5 μM ATP, 1 hour at 30 degrees Celsius
row,Compound,IC50
1,N#Cc1cn2c3c(c(NCCCn4cccn4)c(F)c(N)c3c1=O)OCC21CC1,< 15 nM
2,N#Cc1cn2c3c(c(NCCCc4ccccn4)c(F)c(N)c3c1=O)OCC21CC1,< 15 nM

# More lines, now with the values ahead:
row,IC50,Compound
1,< 15 nM,N#Cc1cn2c3c(c(NCCCc4cccnc4)c(F)c(N)c3c1=O)OCC21CC1
2,< 15 nM,N#Cc1cn2c3c(c(NCCCc4ccncc4)c(F)c(N)c3c1=O)OCC21CCCC1

# — patent US8476261B2, “Spirocyclic aminoquinolones as GSK-3 inhibitors” (Kyorin Pharmaceutical Co., Ltd., priority 2007, dated 2013)
